Activity calls are given as the source filed them. No rule for the calls is given here.
System: CCRIS mutagenicity, Ames/micronucleus/aberration tests
Assay: CCRIS mutagenicity studies

Measured: mutagenic call

COc1cc([N+](=O)[O-])ccc1N=NC(C(C)=O)C(=O)Nc1ccccc1OC (centres undefined)
inactive: Test System: AMES SALMONELLA TYPHIMURIUM, Strain/Indicator: TA97, Metabolic Activation: HAMSTER, LIVER, S-9, AROCLOR 1254 (10%), Method: PREINCUBATION inactive; negative | Test System: AMES SALMONELLA TYPHIMURIUM, Strain/Indicator: TA97, Metabolic Activation: HAMSTER, LIVER, S-9, AROCLOR 1254 (30%), Method: PREINCUBATION inactive; negative | Test System: AMES SALMONELLA TYPHIMURIUM, Strain/Indicator: TA97, Metabolic Activation: NONE, Method: PREINCUBATION inactive; negative | Test System: AMES SALMONELLA TYPHIMURIUM, Strain/Indicator: TA97, Metabolic Activation: RAT, LIVER, S-9, AROCLOR 1254 (10%), Method: PREINCUBATION inactive; negative | Test System: AMES SALMONELLA TYPHIMURIUM, Strain/Indicator: TA97, Metabolic Activation: RAT, LIVER, S-9, AROCLOR 1254 (30%), Method: PREINCUBATION inactive; negative | Test System: AMES SALMONELLA TYPHIMURIUM, Strain/Indicator: TA98, Metabolic Activation: HAMSTER, LIVER, S-9, AROCLOR 1254 (10%), Method: PREINCUBATION inactive; negative | Test System: AMES SALMONELLA TYPHIMURIUM, Strain/Indicator: TA98, Metabolic Activation: HAMSTER, LIVER, S-9, AROCLOR 1254 (30%), Method: PREINCUBATION inactive; negative | Test System: AMES SALMONELLA TYPHIMURIUM, Strain/Indicator: TA98, Metabolic Activation: HAMSTER, LIVER, S-9, AROCLOR 1254, Method: STANDARD PLATE inactive; negative | Test System: AMES SALMONELLA TYPHIMURIUM, Strain/Indicator: TA98, Metabolic Activation: NONE, Method: PREINCUBATION inactive; negative | Test System: AMES SALMONELLA TYPHIMURIUM, Strain/Indicator: TA98, Metabolic Activation: NONE, Method: STANDARD PLATE inactive; negative | Test System: AMES SALMONELLA TYPHIMURIUM, Strain/Indicator: TA98, Metabolic Activation: RAT, LIVER, S-9, AROCLOR 1254 (10%), Method: PREINCUBATION inactive; negative | Test System: AMES SALMONELLA TYPHIMURIUM, Strain/Indicator: TA98, Metabolic Activation: RAT, LIVER, S-9, AROCLOR 1254 (30%), Method: PREINCUBATION inactive; negative | Test System: AMES SALMONELLA TYPHIMURIUM, Strain/Indicator: TA98, Metabolic Activation: RAT, LIVER, S-9, AROCLOR 1254, Method: STANDARD PLATE inactive; negative | Test System: AMES SALMONELLA TYPHIMURIUM, Strain/Indicator: TA100, Metabolic Activation: HAMSTER, LIVER, S-9, AROCLOR 1254 (10%), Method: PREINCUBATION inactive; negative | Test System: AMES SALMONELLA TYPHIMURIUM, Strain/Indicator: TA100, Metabolic Activation: HAMSTER, LIVER, S-9, AROCLOR 1254 (30%), Method: PREINCUBATION inactive; negative | Test System: AMES SALMONELLA TYPHIMURIUM, Strain/Indicator: TA100, Metabolic Activation: HAMSTER, LIVER, S-9, AROCLOR 1254, Method: STANDARD PLATE inactive; negative | Test System: AMES SALMONELLA TYPHIMURIUM, Strain/Indicator: TA100, Metabolic Activation: NONE, Method: PREINCUBATION inactive; negative | Test System: AMES SALMONELLA TYPHIMURIUM, Strain/Indicator: TA100, Metabolic Activation: NONE, Method: STANDARD PLATE inactive; negative | Test System: AMES SALMONELLA TYPHIMURIUM, Strain/Indicator: TA100, Metabolic Activation: RAT, LIVER, S-9, AROCLOR 1254 (10%), Method: PREINCUBATION inactive; negative | Test System: AMES SALMONELLA TYPHIMURIUM, Strain/Indicator: TA100, Metabolic Activation: RAT, LIVER, S-9, AROCLOR 1254 (30%), Method: PREINCUBATION inactive; negative | Test System: AMES SALMONELLA TYPHIMURIUM, Strain/Indicator: TA100, Metabolic Activation: RAT, LIVER, S-9, AROCLOR 1254, Method: STANDARD PLATE inactive; negative | Test System: AMES SALMONELLA TYPHIMURIUM, Strain/Indicator: TA1535, Metabolic Activation: HAMSTER, LIVER, S-9, AROCLOR 1254 (10%), Method: PREINCUBATION inactive; negative | Test System: AMES SALMONELLA TYPHIMURIUM, Strain/Indicator: TA1535, Metabolic Activation: HAMSTER, LIVER, S-9, AROCLOR 1254 (30%), Method: PREINCUBATION inactive; negative | Test System: AMES SALMONELLA TYPHIMURIUM, Strain/Indicator: TA1535, Metabolic Activation: HAMSTER, LIVER, S-9, AROCLOR 1254, Method: STANDARD PLATE inactive; negative | Test System: AMES SALMONELLA TYPHIMURIUM, Strain/Indicator: TA1535, Metabolic Activation: NONE, Method: STANDARD PLATE inactive; negative | Test System: AMES SALMONELLA TYPHIMURIUM, Strain/Indicator: TA1535, Metabolic Activation: RAT, LIVER, S-9, AROCLOR 1254 (10%), Method: PREINCUBATION inactive; negative | Test System: AMES SALMONELLA TYPHIMURIUM, Strain/Indicator: TA1535, Metabolic Activation: RAT, LIVER, S-9, AROCLOR 1254 (30%), Method: PREINCUBATION inactive; negative | Test System: AMES SALMONELLA TYPHIMURIUM, Strain/Indicator: TA1535, Metabolic Activation: RAT, LIVER, S-9, AROCLOR 1254, Method: STANDARD PLATE inactive; negative | Test System: AMES SALMONELLA TYPHIMURIUM, Strain/Indicator: TA1537, Metabolic Activation: HAMSTER, LIVER, S-9, AROCLOR 1254, Method: STANDARD PLATE inactive; negative | Test System: AMES SALMONELLA TYPHIMURIUM, Strain/Indicator: TA1537, Metabolic Activation: NONE, Method: STANDARD PLATE inactive; negative | Test System: AMES SALMONELLA TYPHIMURIUM, Strain/Indicator: TA1537, Metabolic Activation: RAT, LIVER, S-9, AROCLOR 1254, Method: STANDARD PLATE inactive; negative | Test System: AMES SALMONELLA TYPHIMURIUM, Strain/Indicator: TA1538, Metabolic Activation: HAMSTER, LIVER, S-9, AROCLOR 1254, Method: STANDARD PLATE inactive; negative | Test System: AMES SALMONELLA TYPHIMURIUM, Strain/Indicator: TA1538, Metabolic Activation: NONE, Method: STANDARD PLATE inactive; negative | Test System: AMES SALMONELLA TYPHIMURIUM, Strain/Indicator: TA1538, Metabolic Activation: RAT, LIVER, S-9, AROCLOR 1254, Method: STANDARD PLATE inactive; negative | Test System: MOUSE LYMPHOMA, Strain/Indicator: L5178Y (TK+/TK-), Metabolic Activation: NONE, Method: SUSPENSION/PLATE inactive; negative. reevaluation of results: negative | Test System: MOUSE LYMPHOMA, Strain/Indicator: L5178Y (TK+/TK-), Metabolic Activation: RAT, LIVER, S-9, AROCLOR 1254, Method: SUSPENSION/PLATE inactive; negative. reevaluation of results: negative

C[C@]12CCc3c(ccc4cc(O)ccc34)[C@@H]1CCC2=O
inactive: Test System: UDS RAT HEPATOCYTES, Strain/Indicator: THY INCORP (18-20 HR), Metabolic Activation: NONE, Method: LIQUID SCINTILLATION COUNTING inactive; negative

COc1ccc2c(c1)[C@@H]1CCCC[C@H]1C=C2
active: Test System: AMES SALMONELLA TYPHIMURIUM, Strain/Indicator: TA98, Metabolic Activation: RAT, LIVER, S-9, SODIUM PHENOBARBITAL AND BETA-NAPHTHOFLAVONE, Method: STANDARD PLATE active; positive | Test System: AMES SALMONELLA TYPHIMURIUM, Strain/Indicator: TA100, Metabolic Activation: RAT, LIVER, S-9, SODIUM PHEOBARBITAL AND BETA-NAPHTHOFLAVONE, Method: STANDARD PLATE active; positive
